BindingDB's records for doi:10.1016/j.bmc.2015.10.001 (Seoul National University, 2015)

Target: Transient receptor potential cation channel subfamily V member 1 (Homo sapiens, UniProt Q8NER1)
Assay: Antagonist activity at human TRPV1 heterologously expressed in CHO cells assessed as inhibition of capsaicin-induced activation by FLIPR assay

Sequence of Transient receptor potential cation channel subfamily V member 1 (Q8NER1 whole entry): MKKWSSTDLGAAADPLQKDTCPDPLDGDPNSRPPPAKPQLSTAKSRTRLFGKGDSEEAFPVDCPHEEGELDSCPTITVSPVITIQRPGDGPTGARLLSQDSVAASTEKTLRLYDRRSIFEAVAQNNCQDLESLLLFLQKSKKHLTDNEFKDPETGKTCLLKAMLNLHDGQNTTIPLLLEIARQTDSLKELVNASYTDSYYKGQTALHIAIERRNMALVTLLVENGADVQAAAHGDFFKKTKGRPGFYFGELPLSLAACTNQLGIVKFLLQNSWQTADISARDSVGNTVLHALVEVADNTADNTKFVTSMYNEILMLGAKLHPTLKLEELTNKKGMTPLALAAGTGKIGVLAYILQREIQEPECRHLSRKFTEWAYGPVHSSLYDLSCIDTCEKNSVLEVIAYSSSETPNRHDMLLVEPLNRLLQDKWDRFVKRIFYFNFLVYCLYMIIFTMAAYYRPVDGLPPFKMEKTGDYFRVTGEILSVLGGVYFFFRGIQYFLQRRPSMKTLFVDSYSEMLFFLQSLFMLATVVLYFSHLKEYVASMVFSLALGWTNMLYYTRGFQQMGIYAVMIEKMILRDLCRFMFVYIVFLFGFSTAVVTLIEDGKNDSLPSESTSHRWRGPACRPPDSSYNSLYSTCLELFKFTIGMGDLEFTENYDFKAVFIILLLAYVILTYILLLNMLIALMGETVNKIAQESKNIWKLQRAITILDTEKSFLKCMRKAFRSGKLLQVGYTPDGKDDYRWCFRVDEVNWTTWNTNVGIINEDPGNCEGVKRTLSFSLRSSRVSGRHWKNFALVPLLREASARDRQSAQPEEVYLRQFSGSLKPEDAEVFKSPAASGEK

Ki: 0.7 nM
SMILES: CCCCCOc1cc(C(F)(F)F)ccc1CNC(=O)C(C)c1ccc(NS(C)(=O)=O)c(F)c1 (stereo unspecified)
